pIC50: −log10 of the molar value.
Experiments:
Type in all cases: functional
[1] = species: Rattus norvegicus; test: Mechanoinhibitory activity in presence of Glibenclamide (1 uM) was evaluated in KCl stimulated rat detrusor strip
[2] = species: Rattus norvegicus; test: Mechanoinhibitory activity was evaluated by spontaneous contraction of rat portal vein.
[3] = species: Rattus norvegicus; test: Mechanoinhibitory activity was evaluated in KCl stimulated rat detrusor strip
[4] = Mechanoinhibitory activity was evaluated by the ratio of IC50(portal vein)/IC50(bladder)
[5] = species: Rattus norvegicus; test: Mechanoinhibitory activity in presence of Glibenclamide (1 uM) was evaluated by spontaneous contraction of rat portal vein.
[6] = species: Rattus norvegicus; test: Mechanoinhibitory activity was evaluated by spontaneous contraction of rat portal vein; + indicates enhancement in spontaneous contraction was observed
[7] = species: Rattus norvegicus; test: Mechanoinhibitory activity (bladder-selective potassium channel opening activity) was evaluated in KCl stimulated rat detrusor strip

| pIC50 [1] | pIC50 [2] | pIC50 [3] | pIC50 [5] | pIC50 [7] | SMILES | Ratio [4] | Effect on spontaneous contraction [6] |
| --- | --- | --- | --- | --- | --- | --- | --- |
| 4.27 | 5.57 | 5.06 | 4.22 | – | CC(=O)N1CCO[C@@H]2[C@H]1c1cc(C#N)ccc1OC2(C)C | 0.31 | – |
| 4.25 | – | 4.27 | – | – | CC1(C)Oc2ccc(C#N)cc2[C@H]2NC(=O)CO[C@@H]21 | – | enhancement in spontaneous contraction |
| 3.89 | 4.58 | 4.18 | 4.55 | – | CN1C(=O)CO[C@H]2[C@@H]1c1cc(C#N)ccc1OC2(C)C | 0.4 | – |
| 3.61 | 3.90 | 3.98 | – | – | CC(C)C(=O)N1CCO[C@H]2[C@H]1c1cc(C#N)ccc1OC2(C)C | 1.22 | – |
| 4.10 | 4.30 | 4.36 | 4.14 | – | CN1C(=O)CO[C@H]2[C@H]1c1cc(C#N)ccc1OC2(C)C | 1.15 | – |
| 3.85 | 4.70 | 4.29 | 4.28 | – | CCC(=O)N1CCO[C@@H]2[C@H]1c1cc(C#N)ccc1OC2(C)C | 0.39 | – |
| 3.57 | 4.74 | 4.25 | 4.23 | – | CC(C)C(=O)N1CCO[C@@H]2[C@H]1c1cc(C#N)ccc1OC2(C)C | 0.33 | – |
| 3.50 | 4.19 | 4.33 | 4.03 | – | CCC(=O)N1CCO[C@H]2[C@H]1c1cc(C#N)ccc1OC2(C)C | 1.38 | – |
| 3.55 | 4.20 | 4.29 | 3.93 | – | CC1(C)Oc2ccc(C#N)cc2[C@@H]2[C@H]1OCCN2C=O | 1.21 | – |
| 3.91 | – | 4.18 | – | – | CC1(C)Oc2ccc(C#N)cc2[C@@H]2[C@@H]1OCCN2C(=O)c1ccccc1 | – | enhancement in spontaneous contraction |
| 3.82 | 5.23 | 4.15 | 4.10 | – | CC(=O)N1CCO[C@H]2[C@H]1c1cc(C#N)ccc1OC2(C)C | 0.08 | – |
| 3.89 | – | 4.17 | – | – | CC1(C)Oc2ccc(C#N)cc2[C@@H]2[C@@H]1OCC(=O)N2Cc1ccccc1 | – | enhancement in spontaneous contraction |
| 4.48 | 4.46 | – | 4.34 | 5.09 | CC1(C)Oc2ccc(C#N)cc2[C@@H]2[C@H]1OCCN2C(=O)c1ccccc1 | 4.23 | – |
| 3.80 | – | 3.82 | – | – | CC1(C)Oc2ccc(C#N)cc2[C@@H]2[C@@H]1OCCN2C=O | – | enhancement in spontaneous contraction |
| 5.06 | 6.89 | 6.09 | 5.31 | – | CC1(C)Oc2ccc(C#N)cc2[C@@H](N2CCCC2=O)[C@@H]1O [LEVCROMAKALIM] | 0.16 | – |
